Measurements from the NIST ThermoML archive (doi:10.1016/j.fluid.2007.08.010).
± gives the expanded uncertainty stated by the source.

Conditions: Liquid, Falling or rolling sphere viscometry

Compound	viscosity (313.2 K, 690 kPa)	viscosity (313.2 K, 5000 kPa)	viscosity (313.2 K, 10000 kPa)	viscosity (313.2 K, 20000 kPa)	viscosity (313.2 K, 30000 kPa)	viscosity (313.2 K, 40000 kPa)	viscosity (313.2 K, 50000 kPa)	viscosity (313.2 K, 60000 kPa)	viscosity (333.2 K, 690 kPa)	viscosity (333.2 K, 5000 kPa)	viscosity (333.2 K, 10000 kPa)	viscosity (333.2 K, 20000 kPa)	viscosity (333.2 K, 30000 kPa)	viscosity (333.2 K, 40000 kPa)	viscosity (333.2 K, 50000 kPa)	viscosity (333.2 K, 60000 kPa)	viscosity (353.2 K, 690 kPa)	viscosity (353.2 K, 5000 kPa)	viscosity (353.2 K, 10000 kPa)	viscosity (353.2 K, 20000 kPa)	also measured
CCCCCCCCCCCCCC [tetradecane]	1.653 ± 0.068 mPa·s	1.738 ± 0.071 mPa·s	1.831 ± 0.075 mPa·s	2.025 ± 0.083 mPa·s	2.241 ± 0.092 mPa·s	2.483 ± 0.1 mPa·s	2.767 ± 0.11 mPa·s	3.093 ± 0.13 mPa·s	1.218 ± 0.05 mPa·s	1.283 ± 0.053 mPa·s	1.345 ± 0.055 mPa·s	1.473 ± 0.06 mPa·s	1.607 ± 0.066 mPa·s	1.74 ± 0.071 mPa·s	1.886 ± 0.077 mPa·s	2.043 ± 0.084 mPa·s	0.896 ± 0.037 mPa·s	0.957 ± 0.039 mPa·s	1.017 ± 0.042 mPa·s	1.128 ± 0.046 mPa·s	viscosity (353.2 K, 30000 kPa): 1.229 ± 0.05 mPa·s; viscosity (353.2 K, 40000 kPa): 1.325 ± 0.054 mPa·s; viscosity (353.2 K, 50000 kPa): 1.423 ± 0.058 mPa·s; viscosity (353.2 K, 60000 kPa): 1.518 ± 0.062 mPa·s; viscosity (373.2 K, 690 kPa): 0.66 ± 0.027 mPa·s; viscosity (373.2 K, 5000 kPa): 0.708 ± 0.029 mPa·s; viscosity (373.2 K, 10000 kPa): 0.757 ± 0.031 mPa·s; viscosity (373.2 K, 20000 kPa): 0.852 ± 0.035 mPa·s; viscosity (373.2 K, 30000 kPa): 0.943 ± 0.039 mPa·s; viscosity (373.2 K, 40000 kPa): 1.031 ± 0.042 mPa·s; viscosity (373.2 K, 50000 kPa): 1.117 ± 0.046 mPa·s; viscosity (373.2 K, 60000 kPa): 1.202 ± 0.049 mPa·s; viscosity (393.2 K, 690 kPa): 0.527 ± 0.022 mPa·s; viscosity (393.2 K, 5000 kPa): 0.568 ± 0.023 mPa·s; viscosity (393.2 K, 10000 kPa): 0.609 ± 0.025 mPa·s; viscosity (393.2 K, 20000 kPa): 0.687 ± 0.028 mPa·s; viscosity (393.2 K, 30000 kPa): 0.767 ± 0.031 mPa·s; viscosity (393.2 K, 40000 kPa): 0.839 ± 0.034 mPa·s; viscosity (393.2 K, 50000 kPa): 0.908 ± 0.037 mPa·s; viscosity (393.2 K, 60000 kPa): 0.976 ± 0.04 mPa·s
c1ccccc1 [benzene]	0.479 ± 0.02 mPa·s	0.5 ± 0.02 mPa·s	0.524 ± 0.021 mPa·s	0.574 ± 0.023 mPa·s	0.625 ± 0.025 mPa·s	0.675 ± 0.027 mPa·s	0.725 ± 0.029 mPa·s	0.774 ± 0.031 mPa·s	0.387 ± 0.016 mPa·s	0.404 ± 0.016 mPa·s	0.424 ± 0.017 mPa·s	0.466 ± 0.019 mPa·s	0.509 ± 0.021 mPa·s	0.553 ± 0.023 mPa·s	0.597 ± 0.024 mPa·s	0.641 ± 0.026 mPa·s	0.317 ± 0.013 mPa·s	0.331 ± 0.013 mPa·s	0.347 ± 0.014 mPa·s	0.38 ± 0.015 mPa·s	viscosity (353.2 K, 30000 kPa): 0.415 ± 0.017 mPa·s; viscosity (353.2 K, 40000 kPa): 0.451 ± 0.018 mPa·s; viscosity (353.2 K, 50000 kPa): 0.489 ± 0.02 mPa·s; viscosity (353.2 K, 60000 kPa): 0.526 ± 0.021 mPa·s; viscosity (373.2 K, 690 kPa): 0.269 ± 0.011 mPa·s; viscosity (373.2 K, 5000 kPa): 0.279 ± 0.011 mPa·s; viscosity (373.2 K, 10000 kPa): 0.291 ± 0.012 mPa·s; viscosity (373.2 K, 20000 kPa): 0.316 ± 0.013 mPa·s; viscosity (373.2 K, 30000 kPa): 0.344 ± 0.014 mPa·s; viscosity (373.2 K, 40000 kPa): 0.372 ± 0.015 mPa·s; viscosity (373.2 K, 50000 kPa): 0.402 ± 0.016 mPa·s; viscosity (373.2 K, 60000 kPa): 0.434 ± 0.018 mPa·s; viscosity (393.2 K, 690 kPa): 0.239 ± 0.01 mPa·s; viscosity (393.2 K, 5000 kPa): 0.246 ± 0.01 mPa·s; viscosity (393.2 K, 10000 kPa): 0.255 ± 0.01 mPa·s; viscosity (393.2 K, 20000 kPa): 0.273 ± 0.011 mPa·s; viscosity (393.2 K, 30000 kPa): 0.294 ± 0.012 mPa·s; viscosity (393.2 K, 40000 kPa): 0.315 ± 0.013 mPa·s; viscosity (393.2 K, 50000 kPa): 0.339 ± 0.014 mPa·s; viscosity (393.2 K, 60000 kPa): 0.364 ± 0.015 mPa·s
